For series [1], the system named is Phosphatidylinositol 4,5-bisphosphate 3-kinase catalytic subunit alpha isoform (Homo sapiens), P42336 [M1043I]. Briefly: Inhibition of human partial length PIK3CA M1043I mutant (R108 to N1068 residues) expressed in mammalian expression system at 1 uM by Kinomescan method relative to control.
Series [2] has as its target Leucine-rich repeat serine/threonine-protein kinase 2 (Homo sapiens) (UniProt Q5S007). Briefly: Inhibition of wild-type human partial length LRRK2 (H970 to E2527 residues) expressed in mammalian expression system at 1 uM by Kinomescan method relative to control.
The nature of series [3]: Protein binding in rat plasma assessed as unbound fraction at 2 uM by rapid equilibrium dialysis method. The series is classed as ADME, cell-free. For orientation: Equilibrium dialysis compares concentrations on both sides of a semipermeable membrane.
In series [4] the target is BDNF/NT-3 growth factors receptor (Homo sapiens) (UniProt Q16620). Description: Inhibition of wild-type human partial length TRKB (Q547 to G838 residues) expressed in mammalian expression system at 1 uM by Kinomescan method relative to control.
Series [5] addresses RAC-alpha serine/threonine-protein kinase (Homo sapiens) (UniProt P31749). Briefly: Inhibition of wild-type human partial length AKT1 expressed in bacterial expression system at 1 uM by Kinomescan method relative to control.
Series [6] has as its target Mitogen-activated protein kinase 8 (Homo sapiens) (UniProt P45983). Briefly: Inhibition of wild-type human full length JNK1 (M1 to Q384 residues) expressed in mammalian expression system at 1 uM by Kinomescan method relative to control.
Series [7] concerns the target Cyclin-dependent kinase 5 (Homo sapiens) (UniProt Q00535). Briefly: Inhibition of wild-type human full length CDK5 (M1 to P292 residues) expressed in bacterial expression system at 1 uM by Kinomescan method relative to control.
Series [8] deals with Serine/threonine-protein kinase MRCK beta (Homo sapiens) (UniProt Q9Y5S2). Description: Inhibition of wild-type human partial length MRCKB (L56 to S417 residues) expressed in bacterial expression system at 1 uM by Kinomescan method relative to control.
Sequence of Serine/threonine-protein kinase MRCK beta (Homo sapiens) (Q9Y5S2 whole entry, the tested form may be a part): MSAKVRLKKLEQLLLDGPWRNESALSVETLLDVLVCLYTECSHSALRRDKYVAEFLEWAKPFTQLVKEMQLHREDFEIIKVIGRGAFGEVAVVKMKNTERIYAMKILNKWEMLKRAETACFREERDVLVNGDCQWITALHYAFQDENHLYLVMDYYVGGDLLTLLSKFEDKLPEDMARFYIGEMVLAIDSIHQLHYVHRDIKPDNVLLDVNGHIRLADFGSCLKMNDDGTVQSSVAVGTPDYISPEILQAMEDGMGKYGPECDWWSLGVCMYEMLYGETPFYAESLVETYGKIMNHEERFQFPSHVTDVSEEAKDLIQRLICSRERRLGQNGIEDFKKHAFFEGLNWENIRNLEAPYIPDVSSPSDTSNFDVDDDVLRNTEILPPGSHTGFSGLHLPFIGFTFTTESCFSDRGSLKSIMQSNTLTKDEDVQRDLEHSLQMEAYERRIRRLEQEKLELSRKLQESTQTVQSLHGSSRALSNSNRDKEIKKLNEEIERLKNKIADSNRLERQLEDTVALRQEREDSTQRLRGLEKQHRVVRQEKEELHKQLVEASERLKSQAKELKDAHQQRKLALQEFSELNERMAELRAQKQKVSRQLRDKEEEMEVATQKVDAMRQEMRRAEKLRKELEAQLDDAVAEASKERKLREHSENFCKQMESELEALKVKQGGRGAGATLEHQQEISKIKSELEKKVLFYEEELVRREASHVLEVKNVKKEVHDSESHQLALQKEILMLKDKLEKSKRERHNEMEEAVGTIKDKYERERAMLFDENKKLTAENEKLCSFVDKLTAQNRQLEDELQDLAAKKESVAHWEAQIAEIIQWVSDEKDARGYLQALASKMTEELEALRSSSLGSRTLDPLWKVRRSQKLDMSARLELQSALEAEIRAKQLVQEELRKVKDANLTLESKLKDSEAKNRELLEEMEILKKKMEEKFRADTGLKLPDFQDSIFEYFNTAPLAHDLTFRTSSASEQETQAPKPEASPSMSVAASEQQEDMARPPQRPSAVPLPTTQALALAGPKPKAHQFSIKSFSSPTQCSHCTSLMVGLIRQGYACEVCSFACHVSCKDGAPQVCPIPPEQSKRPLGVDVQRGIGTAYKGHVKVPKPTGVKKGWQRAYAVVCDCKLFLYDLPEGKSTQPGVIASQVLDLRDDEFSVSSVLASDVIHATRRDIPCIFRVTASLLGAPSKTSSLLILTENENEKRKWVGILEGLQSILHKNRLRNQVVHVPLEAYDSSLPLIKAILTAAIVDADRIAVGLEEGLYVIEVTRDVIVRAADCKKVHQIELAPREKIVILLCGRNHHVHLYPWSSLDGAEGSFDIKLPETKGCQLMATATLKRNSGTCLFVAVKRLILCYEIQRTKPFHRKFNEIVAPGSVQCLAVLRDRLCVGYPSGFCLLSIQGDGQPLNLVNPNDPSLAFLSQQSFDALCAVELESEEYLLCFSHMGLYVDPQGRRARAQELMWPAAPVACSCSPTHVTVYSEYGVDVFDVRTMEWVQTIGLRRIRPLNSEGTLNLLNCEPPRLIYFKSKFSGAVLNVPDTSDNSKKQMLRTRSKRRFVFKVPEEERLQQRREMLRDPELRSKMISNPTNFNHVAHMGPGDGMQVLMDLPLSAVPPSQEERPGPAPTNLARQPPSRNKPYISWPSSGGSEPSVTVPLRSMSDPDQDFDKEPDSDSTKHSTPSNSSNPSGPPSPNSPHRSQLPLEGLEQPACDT
Series [9] can be described thus: Volume of distribution at steady state in Sprague-Dawley rat at 1 mg/kg, iv. It counts as ADME, organism-based. The following applies: in vivo, read-out: Vdss.
Series [10] concerns Receptor-type tyrosine-protein kinase FLT3 (Homo sapiens), P36888 [R834Q]. Briefly: Inhibition of human partial length FLT3 R834Q mutant (V592 to Y969 residues) expressed in mammalian expression system at 1 uM by Kinomescan method relative to control.
Series [11] relates to Tyrosine-protein kinase ABL1 (Homo sapiens), P00519 [F317I]. Briefly: Inhibition of human phosphorylated ABL1 F317I mutant (S229 to K512 residues) expressed in mammalian expression system at 1 uM by Kinomescan method relative to control.
The target in series [12] is Serine/threonine-protein kinase Chk2 (Homo sapiens) (UniProt O96017). Briefly: Inhibition of wild-type human partial length CHEK2 (S253 to E574 residues) expressed in bacterial expression system at 1 uM by Kinomescan method relative to control.
The subject of series [13] is Receptor-type tyrosine-protein kinase FLT3 (Homo sapiens), P36888 [N841I]. Description: Inhibition of human partial length FLT3 N841I mutant (V592 to Y969 residues) expressed in bacterial expression system at 1 uM by Kinomescan method relative to control.
For series [14], the target named is Phosphatidylinositol 4-phosphate 3-kinase C2 domain-containing subunit beta (Homo sapiens) (UniProt O00750). Description: Inhibition of wild-type human partial length PIK3C2B (M1 to L1634 residues) expressed in mammalian expression system at 10 uM by Kinomescan method relative to control.
Series [15] deals with Serine/threonine-protein kinase TAO1 (Homo sapiens) (UniProt Q7L7X3). Briefly: Inhibition of wild-type human partial length TAOK1 (M1 to A320 residues) expressed in mammalian expression system at 10 uM by Kinomescan method relative to control.
Sequence of Serine/threonine-protein kinase TAO1 (Homo sapiens) (Q7L7X3 whole entry, the tested form may be a part): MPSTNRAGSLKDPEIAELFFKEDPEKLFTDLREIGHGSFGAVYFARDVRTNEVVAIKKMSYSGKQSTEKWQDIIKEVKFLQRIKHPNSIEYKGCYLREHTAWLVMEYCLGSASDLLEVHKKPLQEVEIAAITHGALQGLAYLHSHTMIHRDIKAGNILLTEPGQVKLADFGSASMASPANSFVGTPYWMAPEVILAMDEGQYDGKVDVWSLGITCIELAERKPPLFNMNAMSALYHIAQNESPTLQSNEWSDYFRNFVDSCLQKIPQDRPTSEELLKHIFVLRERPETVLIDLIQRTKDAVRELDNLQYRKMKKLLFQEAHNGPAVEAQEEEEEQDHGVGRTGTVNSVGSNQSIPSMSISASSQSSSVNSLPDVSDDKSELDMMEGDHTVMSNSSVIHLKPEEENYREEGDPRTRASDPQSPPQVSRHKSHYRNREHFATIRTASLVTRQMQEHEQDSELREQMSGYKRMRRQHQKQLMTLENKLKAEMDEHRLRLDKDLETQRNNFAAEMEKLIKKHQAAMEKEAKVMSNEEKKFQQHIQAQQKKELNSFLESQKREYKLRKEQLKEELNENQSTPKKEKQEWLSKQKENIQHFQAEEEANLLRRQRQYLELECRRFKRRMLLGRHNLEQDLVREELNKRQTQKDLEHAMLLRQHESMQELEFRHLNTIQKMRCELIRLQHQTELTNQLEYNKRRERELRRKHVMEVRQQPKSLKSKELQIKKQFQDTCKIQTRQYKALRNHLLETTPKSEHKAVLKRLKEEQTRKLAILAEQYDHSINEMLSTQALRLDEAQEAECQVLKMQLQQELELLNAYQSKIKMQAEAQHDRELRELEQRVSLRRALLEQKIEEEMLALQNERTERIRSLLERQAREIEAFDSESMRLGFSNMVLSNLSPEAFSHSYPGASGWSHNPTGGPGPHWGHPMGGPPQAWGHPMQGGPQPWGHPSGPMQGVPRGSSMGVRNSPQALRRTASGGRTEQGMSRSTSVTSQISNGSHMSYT
In series [16] the target is Protein kinase C epsilon type (Homo sapiens) (UniProt Q02156). Briefly: Inhibition of wild-type human partial length PRKCE (A378 to P737 residues) expressed in mammalian expression system at 10 uM by Kinomescan method relative to control.
The target in series [17] is Cyclin-dependent kinase 9 (Homo sapiens) (UniProt P50750). Description: Inhibition of wild-type human full length CDK9 (M1 to F372 residues) expressed in bacterial expression system at 10 uM by Kinomescan method relative to control.
Series [18] has as its system Proto-oncogene tyrosine-protein kinase receptor Ret (Homo sapiens), P07949 [M918T]. Description: Inhibition of human partial length RET M918T mutant (E713 to D1014 residues) expressed in bacterial expression system at 10 uM by Kinomescan method relative to control.
In series [19] the target is Casein kinase I isoform gamma-3 (Homo sapiens) (UniProt Q9Y6M4). Description: Inhibition of wild-type human full length CSNK1G3 (M1 to K447 residues) expressed in bacterial expression system at 10 uM by Kinomescan method relative to control.
Sequence of Casein kinase I isoform gamma-3 (Homo sapiens) (Q9Y6M4 whole entry, looked up, the tested form may be a part, canonical isoform): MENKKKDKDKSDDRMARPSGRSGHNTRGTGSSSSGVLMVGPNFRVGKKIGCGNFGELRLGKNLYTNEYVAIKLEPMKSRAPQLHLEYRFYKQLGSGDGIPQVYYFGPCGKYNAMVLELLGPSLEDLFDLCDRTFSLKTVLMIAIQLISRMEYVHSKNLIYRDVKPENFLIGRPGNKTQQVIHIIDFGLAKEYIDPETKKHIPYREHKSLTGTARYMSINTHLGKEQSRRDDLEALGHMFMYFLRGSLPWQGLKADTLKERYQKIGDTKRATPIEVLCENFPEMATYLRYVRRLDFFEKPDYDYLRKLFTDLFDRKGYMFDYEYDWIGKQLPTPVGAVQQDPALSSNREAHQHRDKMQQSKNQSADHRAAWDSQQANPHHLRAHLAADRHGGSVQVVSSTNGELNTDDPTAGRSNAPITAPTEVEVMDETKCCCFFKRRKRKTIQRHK
For series [20], the system named is Mast/stem cell growth factor receptor Kit (Homo sapiens), P10721 [V559D,T670I]. Description: Inhibition of human partial length KIT V559D/T670I double mutant (Y545 to D952 residues) expressed in bacterial expression system at 10 uM by Kinomescan method relative to control.
Series [21] deals with Serine/threonine-protein kinase 16 (Homo sapiens) (UniProt O75716). Description: Inhibition of wild-type human partial length STK16 (G11 to I305 residues) expressed in bacterial expression system at 10 uM by Kinomescan method relative to control.
For series [22], the target named is Leukocyte tyrosine kinase receptor (Homo sapiens) (UniProt P29376). Briefly: Inhibition of wild-type human partial length LTK (P422 to S744 residues) expressed in bacterial expression system at 10 uM by Kinomescan method relative to control.
Series [23] has as its target Hormonally up-regulated neu tumor-associated kinase (Homo sapiens) (UniProt P57058). Briefly: Inhibition of wild-type human partial length HUNK (A31 to K354 residues) expressed in bacterial expression system at 10 uM by Kinomescan method relative to control.
Series [24] addresses Mitogen-activated protein kinase kinase kinase 2 (Homo sapiens) (UniProt Q9Y2U5). Description: Inhibition of wild-type human partial length MAP3K2 (S315 to H619 residues) expressed in mammalian expression system at 10 uM by Kinomescan method relative to control.
Series [25] has as its target Ephrin type-B receptor 1 (Homo sapiens) (UniProt P54762). Briefly: Inhibition of wild-type human partial length EPHB1 (P589 to T911 residues) expressed in bacterial expression system at 10 uM by Kinomescan method relative to control.
In series [26] the test system is Epidermal growth factor receptor (Homo sapiens), P00533 [T790M]. Briefly: Inhibition of human partial length EGFR T790M mutant (R669 to G1022 residues) expressed in mammalian expression system at 10 uM by Kinomescan method relative to control.
In series [27] the target is Serine/threonine-protein kinase ULK3 (Homo sapiens) (UniProt Q6PHR2). Briefly: Inhibition of wild-type human partial length ULK3 (M1 to Q290 residues) expressed in mammalian expression system at 10 uM by Kinomescan method relative to control.

Structures are written as SMILES.

Sequence of Hormonally up-regulated neu tumor-associated kinase (Homo sapiens) (P57058 whole entry, the tested form may be a part): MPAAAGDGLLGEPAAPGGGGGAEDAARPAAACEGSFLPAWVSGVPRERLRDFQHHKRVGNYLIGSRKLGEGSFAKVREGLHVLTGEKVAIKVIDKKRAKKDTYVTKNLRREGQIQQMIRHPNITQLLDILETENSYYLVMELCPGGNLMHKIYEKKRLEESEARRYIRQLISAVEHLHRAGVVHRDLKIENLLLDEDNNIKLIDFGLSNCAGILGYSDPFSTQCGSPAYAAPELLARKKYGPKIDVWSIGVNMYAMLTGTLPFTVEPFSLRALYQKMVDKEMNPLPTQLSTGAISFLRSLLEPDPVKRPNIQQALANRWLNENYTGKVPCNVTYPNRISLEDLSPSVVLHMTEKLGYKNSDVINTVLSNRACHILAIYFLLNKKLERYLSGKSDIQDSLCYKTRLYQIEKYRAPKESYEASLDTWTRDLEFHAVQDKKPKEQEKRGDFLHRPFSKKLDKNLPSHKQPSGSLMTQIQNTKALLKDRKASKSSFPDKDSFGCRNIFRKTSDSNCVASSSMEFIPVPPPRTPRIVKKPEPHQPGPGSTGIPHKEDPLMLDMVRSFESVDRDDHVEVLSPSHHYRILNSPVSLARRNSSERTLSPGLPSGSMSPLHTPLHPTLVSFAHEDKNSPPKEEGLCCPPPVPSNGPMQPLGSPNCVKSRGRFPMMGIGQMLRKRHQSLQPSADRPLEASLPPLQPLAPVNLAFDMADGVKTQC
Sequence of Phosphatidylinositol 4,5-bisphosphate 3-kinase catalytic subunit alpha isoform (Homo sapiens), P42336 [M1043I] (P42336 whole entry M1043I, the tested form may be a part, canonical isoform): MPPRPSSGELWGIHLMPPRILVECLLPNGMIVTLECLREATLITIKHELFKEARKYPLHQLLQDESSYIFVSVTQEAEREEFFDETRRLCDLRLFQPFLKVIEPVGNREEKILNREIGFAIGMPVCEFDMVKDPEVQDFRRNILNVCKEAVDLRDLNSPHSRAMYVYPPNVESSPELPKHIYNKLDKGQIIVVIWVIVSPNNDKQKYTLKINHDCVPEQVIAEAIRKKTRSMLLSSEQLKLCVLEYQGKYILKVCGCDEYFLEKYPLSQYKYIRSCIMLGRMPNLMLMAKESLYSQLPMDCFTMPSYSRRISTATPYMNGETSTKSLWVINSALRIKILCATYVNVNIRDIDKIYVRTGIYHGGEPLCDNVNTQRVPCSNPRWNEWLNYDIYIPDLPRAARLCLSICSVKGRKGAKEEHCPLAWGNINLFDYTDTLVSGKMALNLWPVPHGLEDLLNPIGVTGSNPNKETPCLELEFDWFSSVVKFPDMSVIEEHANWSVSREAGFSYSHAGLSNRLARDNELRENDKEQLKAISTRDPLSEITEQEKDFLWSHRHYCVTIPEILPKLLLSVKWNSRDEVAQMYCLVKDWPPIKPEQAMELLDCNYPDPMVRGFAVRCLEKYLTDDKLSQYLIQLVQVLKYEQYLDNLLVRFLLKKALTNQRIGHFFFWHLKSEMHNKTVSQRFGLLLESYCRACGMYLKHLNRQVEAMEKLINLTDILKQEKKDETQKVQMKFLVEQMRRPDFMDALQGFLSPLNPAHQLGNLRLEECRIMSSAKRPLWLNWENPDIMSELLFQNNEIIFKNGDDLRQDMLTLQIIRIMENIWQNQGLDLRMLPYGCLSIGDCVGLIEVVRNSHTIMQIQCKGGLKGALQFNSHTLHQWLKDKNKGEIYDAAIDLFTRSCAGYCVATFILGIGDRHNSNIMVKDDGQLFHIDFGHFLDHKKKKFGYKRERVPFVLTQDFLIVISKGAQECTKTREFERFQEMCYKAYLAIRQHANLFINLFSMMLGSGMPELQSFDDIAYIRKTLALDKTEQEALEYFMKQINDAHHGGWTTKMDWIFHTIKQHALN

For the compound `O=C(Nc1cccc([C@@H]2CN(c3ncnc4[nH]ccc34)CCN2CCO)c1)Nc1c(F)cccc1N1CCCC1`, the inhibition in [1] is 94%; in [2] it was 100%; in series [4], 100%; in series [5], 100%; in series [6], 70%; in [7], 68%. Further, the inhibition in series [8] turned out to be 100%; in series [10] it was 47%; in series [11] it was 100%; in [12], 69%; in series [13], 28%. The Fu in series [3] came out at 0.13%. The Vd in series [9] turned out to be 0.21 L/kg.
For `O=C(Nc1cccc([C@H]2CCCN(c3ncnc4[nH]ccc34)C2)c1)Nc1ccccc1N1CCCC1`, the inhibition in [14] came to 51%; in series [15] it was 62%; in [16] it was 59%; in [17], 100%; in series [18], 0%; in [19], 99%. For the same compound, the inhibition is 0.3% in series [20]; 18% in series [21]; 100% in series [22]; 100% in series [23]; 27% in [24]; 100% in [25]. In addition, the inhibition worked out at 66% in series [26] and 6.2% in series [27].

The term inhibition denotes the drop in the measured response relative to a control, in per cent.

The record behind these values is ChEMBL document CHEMBL4387741, “Optimization of novel reversible Bruton's tyrosine kinase inhibitors identified using Tethering-fragment-based screens” (Bioorg Med Chem, 2019).
